Measurements as given in patent US6251893A, “Bicyclic piperidine and piperazine compounds having 5-HT6 receptor affinity” (NPS Allelix Corp., priority 1998, dated 2001).

Key:
[1] = target: human 5HT6 receptor (Homo sapiens, UniProt P50406); experiment: Binding affinity for the 5-HT6 receptor (3H-LSD displacement); design: expressed in transfected cells; conditions: 100 nM test compound; 3H-LSD (2 nM); 60 minute incubation at 37° C; read-out: percent inhibition of radioligand binding for the 5-HT6 receptor
Description: Binding Affinity for the 5-HT6 Receptor
The assay protocol generally entailed the incubation of membranes prepared from cells expressing the 5-HT6 receptor with ^3 H-LSD (2 nM). Increasing levels of the test compound were incubated with the radioligand and the membrane homogenates prepared from the recombinant cells. After a 60 minute incubation at 37° C., the incubation was terminated by vacuum filtration. The filters were washed with buffer and the filters were counted for radioactivity using liquid scintillation spectrometry. […] Concentrations ranging from 10^-11 M to 10^-5 M of the test compound were evaluated. […] Affinity for the 5-HT6 receptor is expressed as the amount (in percent) of binding of the radioligand that is inhibited in the presence of 100 nM of test compound. A greater percent inhibition indicates greater affinity for the 5-HT6 receptor.

[2] = target: T1, 5HT2C receptor (Homo sapiens, UniProt P28335); experiment: Binding to 5HT2C receptor (selectivity); conditions: selectivity versus 5-HT6; read-out: percent inhibition for the 5HT2C receptor
T1 sequence (P28335 33-458): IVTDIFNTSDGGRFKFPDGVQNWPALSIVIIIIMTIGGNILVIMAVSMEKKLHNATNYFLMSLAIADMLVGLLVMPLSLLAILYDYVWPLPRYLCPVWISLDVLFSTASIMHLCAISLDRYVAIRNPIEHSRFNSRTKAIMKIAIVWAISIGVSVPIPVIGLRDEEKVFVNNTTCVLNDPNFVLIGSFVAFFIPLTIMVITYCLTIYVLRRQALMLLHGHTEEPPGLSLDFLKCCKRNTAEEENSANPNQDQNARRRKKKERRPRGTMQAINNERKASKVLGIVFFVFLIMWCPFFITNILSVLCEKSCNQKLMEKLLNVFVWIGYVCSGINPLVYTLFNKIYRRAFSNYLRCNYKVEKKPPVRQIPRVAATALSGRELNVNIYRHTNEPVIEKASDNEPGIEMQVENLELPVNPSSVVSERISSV

[3] = target: 5-HT7 receptor (Homo sapiens, UniProt P34969); experiment: Binding to 5-HT7 receptor (selectivity); design: dose or concentration left out as unconfirmed; conditions: selectivity versus 5-HT6; read-out: percent inhibition for the 5-HT7 receptor
[4] = target: 5-HT2A receptor (Homo sapiens, UniProt P28223); experiment: Binding to 5-HT2A receptor (selectivity); design: dose or concentration left out as unconfirmed; conditions: selectivity versus 5-HT6; read-out: percent inhibition for the 5-HT2A receptor
5-HT2A receptor, sequence (P28223 whole entry): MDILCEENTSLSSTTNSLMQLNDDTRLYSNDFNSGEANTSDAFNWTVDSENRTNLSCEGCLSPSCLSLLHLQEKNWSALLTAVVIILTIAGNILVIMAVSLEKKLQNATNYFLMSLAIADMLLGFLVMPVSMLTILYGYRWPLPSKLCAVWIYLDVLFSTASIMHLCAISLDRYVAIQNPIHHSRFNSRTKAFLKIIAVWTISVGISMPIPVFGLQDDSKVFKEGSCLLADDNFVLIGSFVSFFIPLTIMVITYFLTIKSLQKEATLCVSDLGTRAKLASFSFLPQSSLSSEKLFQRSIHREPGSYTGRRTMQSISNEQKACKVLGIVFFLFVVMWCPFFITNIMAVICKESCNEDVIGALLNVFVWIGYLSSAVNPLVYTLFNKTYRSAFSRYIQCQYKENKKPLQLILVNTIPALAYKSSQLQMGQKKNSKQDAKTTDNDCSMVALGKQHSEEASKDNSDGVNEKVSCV

human 5HT6 receptor, sequence (P50406 whole entry): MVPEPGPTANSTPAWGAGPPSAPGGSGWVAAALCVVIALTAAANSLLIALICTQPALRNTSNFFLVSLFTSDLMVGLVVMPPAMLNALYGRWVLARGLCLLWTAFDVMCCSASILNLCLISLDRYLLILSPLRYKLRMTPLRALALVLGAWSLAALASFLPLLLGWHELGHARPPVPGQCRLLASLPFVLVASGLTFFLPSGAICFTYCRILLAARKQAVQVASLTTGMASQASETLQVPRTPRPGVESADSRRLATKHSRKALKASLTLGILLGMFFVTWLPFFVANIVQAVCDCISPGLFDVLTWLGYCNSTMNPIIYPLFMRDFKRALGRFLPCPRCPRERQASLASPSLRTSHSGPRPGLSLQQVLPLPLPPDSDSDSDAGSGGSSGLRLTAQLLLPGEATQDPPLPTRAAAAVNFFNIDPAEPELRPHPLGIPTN
5-HT7 receptor, sequence (P34969 whole entry): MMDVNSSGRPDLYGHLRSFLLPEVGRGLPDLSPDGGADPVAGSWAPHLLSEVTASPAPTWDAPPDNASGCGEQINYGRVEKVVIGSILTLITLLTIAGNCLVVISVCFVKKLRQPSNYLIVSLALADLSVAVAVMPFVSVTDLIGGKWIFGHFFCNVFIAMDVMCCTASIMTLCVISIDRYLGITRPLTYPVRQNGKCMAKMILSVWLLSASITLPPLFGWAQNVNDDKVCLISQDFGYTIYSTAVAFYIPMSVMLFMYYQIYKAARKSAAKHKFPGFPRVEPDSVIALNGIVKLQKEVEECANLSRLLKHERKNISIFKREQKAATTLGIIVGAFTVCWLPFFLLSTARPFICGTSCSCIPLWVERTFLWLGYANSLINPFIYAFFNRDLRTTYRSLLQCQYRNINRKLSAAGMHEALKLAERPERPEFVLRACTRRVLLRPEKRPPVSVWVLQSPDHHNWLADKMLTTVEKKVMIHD

Structure (SMILES)	inhibition at 0.1 µM [1]	inhibition at 0.1 µM [2]	inhibition [3]	inhibition [4]
O=S(=O)(c1ccc2ccccc2c1)n1cc(N2CCN3CCCC3C2)c2ccccc21 (racemic) [Example 6a, 3-[(6-R,S)-1,4-Diaza[4.3. 0]bicyclonon-4-yl]-1-(2-naphthalenesulfonyl)indole]	> 80%	< 20%	< 20%	< 20%
O=S(=O)(c1ccc(F)cc1)n1cc(C2=CCN3CCCC3C2)c2cc(F)ccc21 (racemic) [Example 6aa, 5-Fluoro-1-(4-fluorophenylsulfonyl)-3-[(8a-R,S)-1,2,3,5,8,8a-hexahydro-7-indolizinyl]indole]	> 80%	< 20%	< 20%	< 20%
O=S(=O)(c1ccc(Br)cc1)n1cc(C2=CCN3CCCC3C2)c2cc(F)ccc21 (racemic) [Example 6bb, 1-(4-Bromophenylsulfonyl)-5-fluoro-3-[(8a-R,S)-1,2,3,5,8,8a-hexahydro-7-indolizinyl]indole]	> 80%	< 20%	< 20%	< 20%
O=S(=O)(c1ccc(Br)cc1)n1cc(N2CCN3CCCC3C2)c2ccccc21 (racemic) [Example 6c, 1-(4-Bromophenylsulfonyl)-3-[(6-R,S)-1,4-diaza[4.3. 0]bicyclonon-4-yl]indole]	> 80%	< 20%	< 20%	< 20%
O=S(=O)(c1ccccc1Br)n1cc(C2=CCN3CCCC3C2)c2cc(F)ccc21 (racemic) [Example 6cc, 1-(2-Bromophenylsulfonyl)-5-fluoro-3-[(8a-R,S)-1 ,2,3,5,8,8a-hexahydro-7-indolizinyl]indole]	> 80%	< 20%	< 20%	< 20%
CC(C)(C)c1ccc(S(=O)(=O)n2cc(N3CCN4CCCC4C3)c3ccccc32)cc1 (racemic) [Example 6d, 1-(4-t-Butylphenylsulfonyl)-3-[(6-R,S)-1,4-diaza[4.3. 0]bicyclonon-4-yl]indole]	> 80%	< 20%	< 20%	< 20%
Cc1ccc(S(=O)(=O)n2cc(C3=CCN4CCCC4C3)c3cc(F)ccc32)cc1 (racemic) [Example 6dd, 5-Fluoro-3-[(8a-R,S)-1,2,3,5,8,8a-hexahydro-7-indolizinyl]-1-(4-methylphenylsulfonyl)indole]	> 80%	< 20%	< 20%	< 20%
O=S(=O)(c1ccc(Cl)cc1)n1cc(N2CCN3CCCC3C2)c2ccccc21 (racemic) [Example 6e, 1-(4-Chlorophenylsulfonyl)-3-[(6-R,S)-1,4-diaza[4.3. 0]bicyclonon-4-yl]indole]	> 80%	–	–	–
COc1ccc(S(=O)(=O)n2cc(C3=CCN4CCCC4C3)c3cc(F)ccc32)cc1 (racemic) [Example 6ee, 5-Fluoro-3-[(8a-R,S)-1,2,3,5,8,8a-hexahydro-7-indolizinyl]-1-(4-methoxyphenylsulfonyl)indole]	> 80%	< 20%	< 20%	< 20%
O=S(=O)(c1ccc(F)cc1)n1cc(N2CCN3CCCC3C2)c2ccccc21 (racemic) [Example 6f, 3-[(6-R,S)-1,4-Diaza[4.3. 0]bicyclonon-4-yl]-1-(4-fluorophenylsulfonyl)indole]	> 80%	–	–	–
COc1ccc(S(=O)(=O)n2cc(N3CCN4CCCC4C3)c3ccccc32)cc1 (racemic) [Example 6g, 3-[(6-R,S)-1,4-Diaza[4.3. 0]bicyclonon-4-yl]-1-(4-methoxyphenylsulfonyl)indole]	> 80%	< 20%	< 20%	< 20%
CC(C)(C)c1ccc(S(=O)(=O)n2cc(C3=CCN4CCCC4C3)c3cc(F)ccc32)cc1 (racemic) [Example 6gg, 1-(4-t-Butylphenylsulfonyl)-5-fluoro-3-[(8a-R,S)-1,2,3,5,8,8a-hexahydro-7-indolizinyl]indole]	> 80%	< 20%	< 20%	< 20%
O=S(=O)(c1cc(Cl)ccc1Cl)n1cc(N2CCN3CCCC3C2)c2ccccc21 (racemic) [Example 6h, 3-[(6-R,S)-1,4-Diaza[4.3. 0]bicyclonon-4-yl]-1-(2,5-dichlorophenylsulfonyl)indole]	> 80%	–	–	–
O=S(=O)(c1cc(Cl)ccc1Cl)n1cc(C2=CCN3CCCC3C2)c2cc(F)ccc21 (racemic) [Example 6hh, 1-(2,5-Dichlorophenylsulfonyl)-5-fluoro-3-[(8a-R,S)-1,2,3,5,8,8a-hexahydro-7-indolizinyl]indole]	> 80%	< 20%	< 20%	< 20%
O=S(=O)(c1ccccc1Br)n1cc(N2CCN3CCCC3C2)c2ccccc21 (racemic) [Example 6i, 1-(2-Bromophenylsulfonyl)-3-[(6-R,S)-1,4-diaza[4.3. 0]bicyclonon-4-yl]indole]	> 80%	–	–	–
O=S(=O)(c1ccc(Cl)cc1)n1cc(C2=CCN3CCCC3C2)c2cc(F)ccc21 (racemic) [Example 6ii, 1-(4-Chlorophenylsulfonyl)-5-fluoro-3-[(8a-R,S)-1,2,3,5,8,8a-hexahydro-7-indolizinyl]indole]	> 80%	< 20%	< 20%	< 20%
O=S(=O)(c1ccccc1)n1cc(C2=CCN3CCCC3C2)c2cc(F)cc(F)c21 (racemic) [Example 6jj, 5,7-Difluoro-3-[(8a-R,S)-1,2,3,5,8,8a-hexahydro-7-indolizinyl]-1-phenylsulfonylindole]	> 80%	< 20%	< 20%	< 20%
Cc1ccc(S(=O)(=O)n2cc(N3CCN4CCCC4C3)c3ccccc32)cc1 (racemic) [Example 6k, 3-[(6-R,S)-1,4-Diaza[4.3. 0]bicyclonon-4-yl]-1-(4-methylphenylsulfonyl)indole]	> 80%	–	–	–
Cc1ccc(S(=O)(=O)n2cc(N3CCN4CCCCC4C3)c3ccccc32)cc1 (racemic) [Example 6v, 3-[(6-R,S)-1,4-Diaza[4.4. 0]bicyclodecan-4-yl]-1-(4-methylphenylsulfonyl)indole]	> 80%	–	–	–
Cc1ccc(S(=O)(=O)n2nc(N3CCN4CCCC4C3)c3ccccc32)cc1 (racemic) [Example 7a, 3-[(6-R,S)-1,4-Diaza[4.3. 0]bicyclonon-4-yl]-1-(4-methylphenylsulfonyl)indazole]	> 80%	–	–	–
Cc1ccc(S(=O)(=O)n2nc(N3CCN4CCCCC4C3)c3ccccc32)cc1 (racemic) [Example 7b, 3-[(6-R,S)-1,4-Diaza[4.4. 0]bicyclodecan-4-yl]-1-(4-methylphenylsulfonyl)indazole]	> 80%	–	–	–
Cc1cccc(-n2cc(C3CCN4CCCC4C3)c3cc(F)ccc32)c1 (racemic) [Example 9a, 5-Fluoro-3-[(7-R,S)(8a-R,S)-octahydro-7-indolizinyl]-1-(3-methylphenyl)indole]	> 80%	–	–	–
O=S(=O)(c1ccccc1)n1cc(C2=CCN3CCCC3C2)c2cc(OC3CCCCC3)ccc21 (racemic) [Example 10i, 5-Cyclohexyloxy-3-[(8a-R,S)-1,2,3,5,8,8a-hexahydrohydro-7-indolizinyl]-1-phenylsulfonylindole]	> 80%	–	–	–
Fc1ccc2c(c1)c(C1CCN3CCCC3C1)cn2Cc1ccccc1 (single isomer, unassigned; isomer i) [Example 10h, 1-Benzyl-5-fluoro-3-[(7R or 7S)(8a-R,S)-octahydrohydro-7-indolizinyl]indole, Isomer I]	> 80%	–	–	–
O=S(=O)(c1cc(Cl)ccc1Cl)n1cc(C2CCN3CCCC3C2)c2cc(F)ccc21 (single isomer, unassigned; isomer i) [Example 10j, 1-(2,5-Dichlorophenylsulfonyl)-5-Fluoro-3-[(7R or 7S)(8a-R,S)-octahydrohydro-7-indolizinyl]indole, Isomer I]	> 80%	–	–	–
Cc1cccc(S(=O)(=O)n2cc(C3CCN4CCCC4C3)c3cc(F)ccc32)c1 (single isomer, unassigned; isomer i) [Example 10k, 5-Fluoro-1-(3-methylphenylsulfonyl)-3-[(7R or 7S)(8a-R,S)octahydrohydro-7-indolizinyl]lindole, Isomer I]	> 80%	–	–	–
